In US6593357B1, “Pyrazole compositions useful as inhibitors of ERK” (Vertex Pharmaceuticals Incorporated, priority 2000, dated 2003):

Key:
ERK2 = ERK2 (Homo sapiens, UniProt P28482); assay: ERK2 inhibition, spectrophotometric coupled-enzyme assay; type: biochemical; settings: activated ERK2 10 nM, 65 μM ATP, 30° C., pH 7.5; read-out: ERK2 Inhibitory Activity (Ki class)
AKT = AKT inhibition, standard coupled enzyme assay; type: biochemical
Description: Compounds were screened for their ability to inhibit AKT using a standard coupled enzyme assay (Fox et al., Protein Sci., (1998) 7, 2249). Assays were carried out in a mixture of 100 mM HEPES 7.5, 10 mM MgCl2, 25 mM NaCl , 1 mM DTT and 1.5% DMSO. Final substrate concentrations in the assay were 170 μM ATP (Sigma Chemicals) and 200 μM peptide (RPRAATF, American Peptide, Sunnyvale, Calif.). Assays were carried out at 30° C. and 45 nM AKT. Final concentrations of the components of the coupled enzyme system were 2.5 mM phosphoenolpyruvate, 300 μM NADH, 30 μg/ML pyruvate kinase and 10 μg/ml lactate dehydrogenase.
An assay stock buffer solution was prepared containing all of the reagents listed above, with the exception of AKT, DTT, and the test compound of interest. 56 μl of the stock solution was placed in a 384 well plate followed by addition of 1 μl of 2 mM DMSO stock containing the test compound (final compound concentration 30 μM). The plate was preincubated for about 10 minutes at 30° C. and the reaction initiated by addition of 10 μl of enzyme (final concentration 45 nM) and 1 mM DTT. Rates of reaction were obtained using a BioRad Ultramark plate reader (Hercules, Calif.) over a 5 minute read time at 30° C.

[1] = test system: Colon cancer cells (HT-29 cell line); assay: ERK inhibition cell proliferation assay (3H-thymidine uptake); type: cell-based; settings: Homo sapiens, 3 days
Description: Compounds were assayed for the inhibition of ERK2 by a cell proliferation assay. In this assay, a complete media was prepared by adding 10% fetal bovine serum and penicillin/streptomycin solution to RPMI 1640 medium (JRH Biosciences). Colon cancer cells (HT-29 cell line) were added to each of 84 wells of a 96 well plate at a seeding density of 10,000 cells/well/150 μL. The cells were allowed to attach to the plate by incubating at 37° C. for 2 hours. A solution of test compound was prepared in complete media by serial dilution to obtain the following concentrations: 20 μM, 6.7 μM, 2.2 μM, 0.74 μM, 0.25 μM, and 0.08 μM. The test compound solution (50 μL) was added to each of 72 cell-containing wells. To the 12 remaining cell-containing wells, only complete media […] was added to form a control group in order to measure maximal proliferation. To the remaining 12 empty wells, complete media was added to form a vehicle control group in order to measure background. The plates were incubated at 37° C. for 3 days. A stock solution of ^3H-thymidine (1 mCi/mL, New England Nuclear, Boston, Mass.) was diluted to 20 μCi/mL in RPMI medium then 20 μL of this solution was added to each well. The plates were further incubated at 37° C. for 8 hours then harvested and analyzed for ^3H-thymidine uptake using a liquid scintillation counter.

Aurora2 = target: T1, Aurora2 (Homo sapiens, UniProt O14965); assay: Aurora inhibition, standard coupled enzyme assay; type: biochemical; settings: 40 μM ATP, 30° C.; read-out: Aurora2 Inhibitory Activity (IC50 class)
T1 sequence (O14965 1-403): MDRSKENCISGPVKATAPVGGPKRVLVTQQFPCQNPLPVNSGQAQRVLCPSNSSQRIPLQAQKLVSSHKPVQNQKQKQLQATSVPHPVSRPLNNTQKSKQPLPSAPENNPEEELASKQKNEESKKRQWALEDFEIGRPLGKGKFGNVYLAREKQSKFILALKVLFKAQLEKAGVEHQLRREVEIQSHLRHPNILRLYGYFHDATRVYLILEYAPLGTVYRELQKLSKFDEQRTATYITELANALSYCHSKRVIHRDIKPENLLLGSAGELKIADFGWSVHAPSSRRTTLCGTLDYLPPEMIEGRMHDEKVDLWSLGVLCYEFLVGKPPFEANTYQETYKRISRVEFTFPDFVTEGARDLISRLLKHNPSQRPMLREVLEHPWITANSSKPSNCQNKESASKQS
Description: Compounds were screened in the following manner for their ability to inhibit Aurora using a standard coupled enzyme assay. To an assay stock buffer solution containing 0.1M HEPES 7.5, 10 mM MgCl2, 25 mM NaCl, 2.5 mM phosphoenolpyruvate, 300 μM NADH, 30 μg/mL pyruvate kinase, 10 μg/mL lactate dehydrogenase, 40 μM ATP, and 800 μM peptide (LRRASLG, American Peptide, Sunnyvale, Calif.) was added a 30 μM solution of the compound in DMSO and the resulting mixture incubated at 30° C. for 10 min. The reaction was initiated by the addition of 10 μL of 70 nM Aurora and 1 mM DTT. The rates of reaction were obtained by monitoring absorbance at 340 nm over a 5 minute read time at 30° C. using a BioRad Ultramark plate reader (Hercules, Calif.). The IC50 was determined from the rate data as a function of inhibitor concentration.
The compound numbers correspond to the compound numbers in Table 1.

KDR = KDR (Homo sapiens, UniProt P35968); assay: KDR inhibition, standard coupled enzyme assay; type: biochemical; settings: read-out: percent inhibition of KDR
Description: Compounds were screened for their ability to inhibit KDR using a standard coupled enzyme assay (Fox et al., Protein Sci., (1998) 7, 2249). Assays were carried out in a mixture of 200 mM HEPES 7.5, 10 mM MgCl2, 25 mM NaCl , 1 mM DTT and 1.5% DMSO. Final substrate concentrations in the assay were 300 μM ATP (Sigma Chemicals) and 10 μM poly E4Y (Sigma). Assays were carried out at 37° C. and 30 nM KDR. Final concentrations of the components of the coupled enzyme system were 2.5 mM phosphoenolpyruvate, 200 μM NADH, 30 μg/ML pyruvate kinase and 10 μg/ml lactate dehydrogenase.
An assay stock buffer solution was prepared containing all of the reagents listed above, with the exception of ATP and the test compound of interest. 177 μl of the stock solution was placed in a 96 well plate followed by addition of 3 μl of 2 mM DMSO stock containing the test compound (final compound concentration 30 μM). The plate was preincubated for about 10 minutes at 37° C. and the reaction initiated by addition of 20 μl of ATP (final concentration 300 μM). Rates of reaction were obtained using a Molecular Devices plate reader (Sunnyvale, Calif.) over a 5 minute read time at 37° C.

ERK2, sequence (P28482 whole entry): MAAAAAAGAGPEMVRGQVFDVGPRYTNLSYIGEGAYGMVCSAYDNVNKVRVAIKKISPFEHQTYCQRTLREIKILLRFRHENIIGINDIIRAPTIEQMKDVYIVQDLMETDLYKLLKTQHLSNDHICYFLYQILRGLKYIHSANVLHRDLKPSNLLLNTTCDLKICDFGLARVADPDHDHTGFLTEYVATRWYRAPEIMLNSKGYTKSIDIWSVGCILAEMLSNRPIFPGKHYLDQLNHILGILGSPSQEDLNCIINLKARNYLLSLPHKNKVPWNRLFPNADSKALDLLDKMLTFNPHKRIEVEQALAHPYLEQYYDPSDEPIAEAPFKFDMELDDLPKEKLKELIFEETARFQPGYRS
KDR, sequence (P35968 20-1356, species assumed): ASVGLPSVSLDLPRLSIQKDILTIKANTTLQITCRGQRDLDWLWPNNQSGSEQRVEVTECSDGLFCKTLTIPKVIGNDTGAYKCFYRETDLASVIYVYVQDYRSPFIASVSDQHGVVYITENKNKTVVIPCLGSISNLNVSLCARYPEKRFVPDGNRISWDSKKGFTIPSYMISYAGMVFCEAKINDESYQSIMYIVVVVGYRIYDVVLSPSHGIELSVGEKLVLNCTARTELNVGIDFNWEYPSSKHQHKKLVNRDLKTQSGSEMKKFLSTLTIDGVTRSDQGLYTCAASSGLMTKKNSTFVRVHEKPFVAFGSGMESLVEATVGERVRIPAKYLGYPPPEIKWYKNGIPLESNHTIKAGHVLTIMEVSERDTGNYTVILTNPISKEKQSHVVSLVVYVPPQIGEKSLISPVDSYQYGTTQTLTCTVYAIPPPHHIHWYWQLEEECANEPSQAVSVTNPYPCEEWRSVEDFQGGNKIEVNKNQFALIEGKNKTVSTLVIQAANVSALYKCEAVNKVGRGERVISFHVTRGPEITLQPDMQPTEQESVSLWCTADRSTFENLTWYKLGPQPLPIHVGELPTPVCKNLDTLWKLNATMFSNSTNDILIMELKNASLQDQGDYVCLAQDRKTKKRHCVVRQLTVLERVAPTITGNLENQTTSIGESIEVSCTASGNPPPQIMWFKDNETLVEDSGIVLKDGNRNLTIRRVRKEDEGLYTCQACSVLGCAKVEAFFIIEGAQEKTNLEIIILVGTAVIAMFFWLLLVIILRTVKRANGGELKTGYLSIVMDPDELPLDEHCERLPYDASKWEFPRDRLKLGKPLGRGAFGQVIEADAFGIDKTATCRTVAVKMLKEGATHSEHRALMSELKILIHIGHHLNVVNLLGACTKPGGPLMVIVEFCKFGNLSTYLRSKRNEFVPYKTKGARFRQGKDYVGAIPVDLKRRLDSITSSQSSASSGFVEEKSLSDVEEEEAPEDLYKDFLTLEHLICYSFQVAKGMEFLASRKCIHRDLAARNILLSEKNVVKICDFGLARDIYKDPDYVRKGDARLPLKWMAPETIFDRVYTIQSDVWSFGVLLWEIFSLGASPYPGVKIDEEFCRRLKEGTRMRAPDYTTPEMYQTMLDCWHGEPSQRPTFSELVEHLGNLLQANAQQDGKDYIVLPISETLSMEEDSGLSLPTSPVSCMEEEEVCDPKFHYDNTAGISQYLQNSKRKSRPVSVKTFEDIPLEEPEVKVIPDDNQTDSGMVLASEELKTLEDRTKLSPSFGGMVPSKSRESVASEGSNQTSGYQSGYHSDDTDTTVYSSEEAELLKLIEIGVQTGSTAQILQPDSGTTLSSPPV

| Structure (SMILES) | Ki (ERK2) [µM] | inhibit AKT (AKT) | IC50 [1] [µM] | IC50 (Aurora2) [µM] | inhibition at 2 µM (KDR) [%] |
| --- | --- | --- | --- | --- | --- |
| NS(=O)(=O)c1ccc(CNC(=O)c2cc(-c3[nH]ncc3-c3cccc(Br)c3)c[nH]2)cc1 [II-94] | < 1 | inhibit AKT |  |  |  |
| O=C(NCc1ccncc1)c1cc(-c2n[nH]cc2-c2cc(Cl)cc(Cl)c2)c[nH]1 [II-48] | < 1 |  | < 10 | < 5 | > 40 |
| O=C(NCc1ccc2c(c1)CCO2)c1cc(-c2[nH]ncc2-c2cccc(Br)c2)c[nH]1 [II-43] | < 1 |  | < 10 |  | > 40 |
| O=C(NC(CO)c1ccccc1)c1cc(-c2[nH]ncc2-c2cccc(Br)c2)c[nH]1 (centres unmarked) [II-45] | < 1 |  | < 10 |  |  |
| O=C(NOCc1ccccc1)c1cc(-c2[nH]ncc2-c2cccc(F)c2)c[nH]1 [II-89] | < 1 | inhibit AKT |  | < 5 |  |
